Measurements published in the NIST ThermoML archive (doi:10.1016/j.fluid.2015.06.029).
± gives the expanded uncertainty stated by the source.

Experiment: refractive index (Na D-line) (dimensionless)
Settings: 303.15 K; 101.33 kPa; Liquid; Standard Abbe refractometry

Row | refractive index | SMILES
1 | 1.3893 ± 0.0009 | CC(C)C(=O)O [2-methylpropanoic acid]
2 | 1.3997 ± 0.0009 | CC(C)CC(=O)O [3-methylbutanoic acid]
3 | 1.3716 ± 0.0009 | CC(=O)O [acetic acid]
4 | 1.3947 ± 0.0009 | CCCC(=O)O [butanoic acid]
5 | 1.3523 ± 0.0009 | CCCCC [pentane]
6 | 1.4047 ± 0.0009 | CCCCC(=O)O [pentanoic acid]
7 | 1.3829 ± 0.0009 | CCC(=O)O [propanoic acid]
8 | 1.4823 ± 0.0009 | O=S1(=O)CCCC1 [sulfolane]
